The source of these data is patent publication US12698304B2, “Triterpene saponin variants, methods of synthesis and use thereof” (Memorial Sloan-Kettering Cancer Center, priority 2015, dated 2026).

The test system of the test is mice immunized with a four-antigen cocktail (MUC1-KLH, GD3-KLH, OVA). Put plainly: preclinical mouse vaccination model; antibody titers by ELISA. Format: in vivo. Conditions: 5 μg and 20 μg dose of saponin variant (both doses); data not shown. The protocol: Panels a-c: anti-KLH (IgG) (Panel a), anti-OVA (IgG) (Panel b), and anti-MUC1 (IgG) (Panel c) antibody titers at 5 μg dose of each saponin variant. […] Median titer values represented as horizontal bars. Statistical significance compared to the no-adjuvant negative control assessed using unpaired Student's t-test with CI=95%: *p≤0.05, **p<0.01, ***p<0.001.
There is currently no in vitro method to measure adjuvant activity, due in part to the unknown and likely multivariate mechanisms of saponin adjuvant action. Thus, we proceeded directly to testing these QS variants in vivo in a mouse vaccination model. Cohorts of mice were immunized with the saponin variant of interest (5 or 20 μg) and a four-antigen cocktail comprising: (1) the immunogenic peptide MUC1 (prostate and breast cancer antigen, non-glycosylated tandem repeat) conjugated to a highly immunogenic carrier protein KLH (keyhole limpet hemocyanin; MUC1-KLH), (2) the poorly immunogenic ganglioside GD3 (melanoma, neuroblastoma, sarcoma antigen) conjugated to KLH (GD3-KLH), and (3) the immunogenic protein antigen ovalbumin (OVA). The antibody titers elicited against all […] antigens were evaluated by ELISA to compare the adjuvant activity of each QS analogue.
Background: ELISA stands for enzyme-linked immunosorbent assay.

For the molecule `C[C@H]1O[C@@H](OC2C(O)[C@@H](NC(=O)CCCCCCCCCCC(=O)O)C(CO)O[C@@H]2OC(=O)N[C@]23CCC(C)(C)CC2C2=CCC4C5(C)CC[C@H](O[C@@H]6OC(C(=O)O)[C@@H](O)[C@H](O[C@@H]7OC[C@@H](O)[C@H](O)C7O)C6O[C@@H]6OC(CO)[C@H](O)[C@H](O)C6O)[C@](C)(C=O)[C@@H]5CC[C@]4(C)[C@]2(C)CC3O)C(O)C(O)[C@H]1O[C@@H]1OC[C@@H](O)C(O)C1O` (stereo partly drawn) [α-4], the “adjuvant activity (anti-KLH, anti-OVA, anti-MUC1 IgG antibody titers)” value is “inactive”.
